Experimental data taken from patent US20060252807A1, “Novel ortho-terphenyl inhibitors of p38 kinase and methods of treating inflammatory disorders” (Kalypsys, Inc., priority 2005, published 2006).

Molecular target: T1, active p38 alpha enzyme (Upstate Biotechnology) (Homo sapiens, UniProt Q16539)
T1 construct: purchased Upstate Biotechnology
Assay: p38α biochemical assay (ATP turnover, luminescent detection, Cambrex PKlight)
Settings: p38α biochemical assay, Table 1 Biological Activity
Outline: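 p38α + MapkapK2 (whole protein substrate) + 1.4 uM ATP final; Tris/MOPS buffer with MgCl2, CaCl2, EGTA, EDTA, glycerol, β-ME, BSA; 2 h at 30C; luminescent detection of remaining ATP.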

T1 sequence (Q16539 whole entry): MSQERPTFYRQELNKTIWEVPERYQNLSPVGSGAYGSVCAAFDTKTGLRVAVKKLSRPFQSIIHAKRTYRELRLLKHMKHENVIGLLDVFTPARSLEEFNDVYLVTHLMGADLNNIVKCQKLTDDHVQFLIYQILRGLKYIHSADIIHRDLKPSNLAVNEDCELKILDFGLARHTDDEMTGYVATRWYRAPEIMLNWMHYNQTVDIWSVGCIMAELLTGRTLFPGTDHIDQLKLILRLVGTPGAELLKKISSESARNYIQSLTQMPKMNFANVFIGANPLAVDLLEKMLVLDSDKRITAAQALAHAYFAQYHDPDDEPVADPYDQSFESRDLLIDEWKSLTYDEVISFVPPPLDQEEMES

CC(C)NC(=O)c1csc(-c2oc(CN3CCN(C(=O)C4CCc5ccccc5C4)CC3)nc2-c2ccc(F)cc2)n1 (centres unmarked) [Example 441] gave an IC50 of no more than 1000 nM.
In the case of COc1ccccc1/C=C/C(=O)N1CCN(Cc2nc(-c3ccc(F)cc3)c(-c3nc(C(=O)NC(C)C)cs3)o2)CC1 [Example 442], the IC50 is reported as no more than 1000 nM.
For CC(C)NC(=O)c1csc(-c2oc(CN3CCN(C(=O)c4csc5ccccc45)CC3)nc2-c2ccc(F)cc2)n1 [Example 443], the IC50 was greater than 1000 nM.
CC(C)NC(=O)c1csc(-c2oc(CN3CCN(C(=O)c4cc5ccccc5s4)CC3)nc2-c2ccc(F)cc2)n1 [Example 444] showed an IC50 greater than 1000 nM.
Compound CCCCc1ccc(C(=O)N2CCN(Cc3nc(-c4ccc(F)cc4)c(-c4nc(C(=O)NC(C)C)cs4)o3)CC2)cc1 [Example 445] has an IC50 greater than 1000 nM.
CC(C)NC(=O)c1csc(-c2oc(CN3CCN(C(=O)c4ccc(C(C)(C)C)cc4)CC3)nc2-c2ccc(F)cc2)n1 [Example 446] showed an IC50 greater than 1000 nM.
Work on CC(C)NC(=O)c1csc(-c2oc(CN3CCN(C(=O)c4ccc(N(C)C=O)cc4)CC3)nc2-c2ccc(F)cc2)n1 [Example 447] yielded an IC50 of no more than 1000 nM.
Compound CC(=O)Nc1cccc(C(=O)N2CCN(Cc3nc(-c4ccc(F)cc4)c(-c4nc(C(=O)NC(C)C)cs4)o3)CC2)c1 [Example 448] has an IC50 of no more than 1000 nM.
Work on CC(C)NC(=O)c1csc(-c2oc(CN3CCN(C(=O)COc4ccccc4C=O)CC3)nc2-c2ccc(F)cc2)n1 [Example 449] yielded an IC50 greater than 1000 nM.
For CC(=O)Oc1ccc(C(=O)N2CCN(Cc3nc(-c4ccc(F)cc4)c(-c4nc(C(=O)NC(C)C)cs4)o3)CC2)cc1 [Example 450], the IC50 was greater than 1000 nM.
Work on COC(=O)c1ccc(C(=O)N2CCN(Cc3nc(-c4ccc(F)cc4)c(-c4nc(C(=O)NC(C)C)cs4)o3)CC2)cc1 [Example 451] yielded an IC50 greater than 1000 nM.
In the case of CC(=O)Oc1cccc(C(=O)N2CCN(Cc3nc(-c4ccc(F)cc4)c(-c4nc(C(=O)NC(C)C)cs4)o3)CC2)c1 [Example 452], the IC50 is reported as no more than 1000 nM.
Compound CC(=O)Oc1ccccc1C(=O)N1CCN(Cc2nc(-c3ccc(F)cc3)c(-c3nc(C(=O)NC(C)C)cs3)o2)CC1 [Example 453] has an IC50 greater than 1000 nM.
CC(C)NC(=O)c1csc(-c2oc(CN3CCN(C(=O)Cc4ccc5c(c4)OCO5)CC3)nc2-c2ccc(F)cc2)n1 [Example 454] was tested, and the IC50 was greater than 1000 nM.
CCCOc1ccc(C(=O)N2CCN(Cc3nc(-c4ccc(F)cc4)c(-c4nc(C(=O)NC(C)C)cs4)o3)CC2)cc1 [Example 455] gave an IC50 greater than 1000 nM.
CC(C)NC(=O)c1csc(-c2oc(CN3CCN(C(=O)c4ccc(OC(C)C)cc4)CC3)nc2-c2ccc(F)cc2)n1 [Example 456] was tested, and the IC50 was no more than 1000 nM.
Compound Cc1cccc([N+](=O)[O-])c1C(=O)N1CCN(Cc2nc(-c3ccc(F)cc3)c(-c3nc(C(=O)NC(C)C)cs3)o2)CC1 [Example 457] has an IC50 of no more than 1000 nM.
In the case of Cc1cccc(C(=O)N2CCN(Cc3nc(-c4ccc(F)cc4)c(-c4nc(C(=O)NC(C)C)cs4)o3)CC2)c1[N+](=O)[O-] [Example 458], the IC50 is reported as greater than 1000 nM.
For Cc1ccc([N+](=O)[O-])c(C(=O)N2CCN(Cc3nc(-c4ccc(F)cc4)c(-c4nc(C(=O)NC(C)C)cs4)o3)CC2)c1 [Example 459], the IC50 was greater than 1000 nM.
In the case of Cc1c(C(=O)N2CCN(Cc3nc(-c4ccc(F)cc4)c(-c4nc(C(=O)NC(C)C)cs4)o3)CC2)cccc1[N+](=O)[O-] [Example 460], the IC50 is reported as greater than 1000 nM.
Work on COc1ccc(OC)c(C(=O)N2CCN(Cc3nc(-c4ccc(F)cc4)c(-c4nc(C(=O)NC(C)C)cs4)o3)CC2)c1 [Example 461] yielded an IC50 greater than 1000 nM.
For COc1ccc(C(=O)N2CCN(Cc3nc(-c4ccc(F)cc4)c(-c4nc(C(=O)NC(C)C)cs4)o3)CC2)c(OC)c1 [Example 462], the IC50 was no more than 1000 nM.
For COc1cccc(OC)c1C(=O)N1CCN(Cc2nc(-c3ccc(F)cc3)c(-c3nc(C(=O)NC(C)C)cs3)o2)CC1 [Example 463], the IC50 was no more than 1000 nM.
With COc1cc(OC)cc(C(=O)N2CCN(Cc3nc(-c4ccc(F)cc4)c(-c4nc(C(=O)NC(C)C)cs4)o3)CC2)c1 [Example 464] the IC50 was greater than 1000 nM.
Compound COc1cccc(C(=O)N2CCN(Cc3nc(-c4ccc(F)cc4)c(-c4nc(C(=O)NC(C)C)cs4)o3)CC2)c1OC [Example 465] has an IC50 greater than 1000 nM.
Work on Cc1ccc(SCC(=O)N2CCN(Cc3nc(-c4ccc(F)cc4)c(-c4nc(C(=O)NC(C)C)cs4)o3)CC2)cc1 [Example 466] yielded an IC50 greater than 1000 nM.
Compound CC(C)NC(=O)c1csc(-c2oc(CN3CCN(C(=O)/C=C/c4ccc(Cl)cc4)CC3)nc2-c2ccc(F)cc2)n1 [Example 467] has an IC50 greater than 1000 nM.
CC(C)NC(=O)c1csc(-c2oc(CN3CCN(C(=O)/C=C/c4ccccc4Cl)CC3)nc2-c2ccc(F)cc2)n1 [Example 468] showed an IC50 greater than 1000 nM.
Work on CC(C)NC(=O)c1csc(-c2oc(CN3CCN(C(=O)c4ccc([N+](=O)[O-])c(O)c4)CC3)nc2-c2ccc(F)cc2)n1 [Example 469] yielded an IC50 greater than 1000 nM.
For CC(C)NC(=O)c1csc(-c2oc(CN3CCN(C(=O)c4cc(O)ccc4[N+](=O)[O-])CC3)nc2-c2ccc(F)cc2)n1 [Example 470], the IC50 was greater than 1000 nM.
Work on CC(C)NC(=O)c1csc(-c2oc(CN3CCN(C(=O)c4cc([N+](=O)[O-])ccc4O)CC3)nc2-c2ccc(F)cc2)n1 [Example 471] yielded an IC50 of no more than 1000 nM.
CC(C)NC(=O)c1csc(-c2oc(CN3CCN(C(=O)c4cc([N+](=O)[O-])ccc4F)CC3)nc2-c2ccc(F)cc2)n1 [Example 472] was tested, and the IC50 was greater than 1000 nM.
CC(C)NC(=O)c1csc(-c2oc(CN3CCN(C(=O)c4cc(F)ccc4[N+](=O)[O-])CC3)nc2-c2ccc(F)cc2)n1 [Example 473] was tested, and the IC50 was greater than 1000 nM.
CC(C)NC(=O)c1csc(-c2oc(CN3CCN(C(=O)c4ccc(F)c([N+](=O)[O-])c4)CC3)nc2-c2ccc(F)cc2)n1 [Example 474] gave an IC50 greater than 1000 nM.
COc1ccc(Cl)cc1C(=O)N1CCN(Cc2nc(-c3ccc(F)cc3)c(-c3nc(C(=O)NC(C)C)cs3)o2)CC1 [Example 475] gave an IC50 greater than 1000 nM.
In the case of COc1cc(Cl)ccc1C(=O)N1CCN(Cc2nc(-c3ccc(F)cc3)c(-c3nc(C(=O)NC(C)C)cs3)o2)CC1 [Example 476], the IC50 is reported as greater than 1000 nM.
CC(C)NC(=O)c1csc(-c2oc(CN3CCN(C(=O)Cc4ccc(O)c(Cl)c4)CC3)nc2-c2ccc(F)cc2)n1 [Example 477] showed an IC50 greater than 1000 nM.
Compound COc1cc(C(=O)N2CCN(Cc3nc(-c4ccc(F)cc4)c(-c4nc(C(=O)NC(C)C)cs4)o3)CC2)cc(Cl)n1 [Example 478] has an IC50 greater than 1000 nM.
Work on CC(C)NC(=O)c1csc(-c2oc(CN3CCN(C(=O)c4ccc5cc(O)ccc5c4)CC3)nc2-c2ccc(F)cc2)n1 [Example 479] yielded an IC50 greater than 1000 nM.
Work on CC(C)NC(=O)c1csc(-c2oc(CN3CCN(C(=O)c4c(O)ccc5ccccc45)CC3)nc2-c2ccc(F)cc2)n1 [Example 480] yielded an IC50 greater than 1000 nM.
CC(C)NC(=O)c1csc(-c2oc(CN3CCN(C(=O)c4cc5ccccc5cc4O)CC3)nc2-c2ccc(F)cc2)n1 [Example 481] was tested, and the IC50 was greater than 1000 nM.
With CC(C)NC(=O)c1csc(-c2oc(CN3CCN(C(=O)c4ccc5ccccc5c4O)CC3)nc2-c2ccc(F)cc2)n1 [Example 482] the IC50 was greater than 1000 nM.
Compound CC(C)NC(=O)c1csc(-c2oc(CN3CCN(C(=O)c4ccc5cccc(O)c5n4)CC3)nc2-c2ccc(F)cc2)n1 [Example 483] has an IC50 of no more than 1000 nM.
CC(C)NC(=O)c1csc(-c2oc(CN3CCN(C(=O)C(C)NC(=O)OC(C)(C)C)CC3)nc2-c2ccc(F)cc2)n1 (centres unmarked) [Example 484] gave an IC50 greater than 1000 nM.
Compound CC(C)NC(=O)c1csc(-c2oc(CN3CCN(C(=O)C(C)NC(=O)OC(C)(C)C)CC3)nc2-c2ccc(F)cc2)n1 (centres unmarked) [Example 485] has an IC50 greater than 1000 nM.
Compound CC(C)NC(=O)c1csc(-c2oc(CN3CCN(C(=O)c4ccccc4C(F)(F)F)CC3)nc2-c2ccc(F)cc2)n1 [Example 486] has an IC50 greater than 1000 nM.
Work on CC(C)NC(=O)c1csc(-c2oc(CN3CCN(C(=O)CCc4nc5ccccc5[nH]4)CC3)nc2-c2ccc(F)cc2)n1 [Example 487] yielded an IC50 greater than 1000 nM.
CC(C)NC(=O)c1csc(-c2oc(CN3CCN(C(=O)c4cccc(Cl)c4Cl)CC3)nc2-c2ccc(F)cc2)n1 [Example 488] gave an IC50 greater than 1000 nM.
CC(C)NC(=O)c1csc(-c2oc(CN3CCN(C(=O)c4ccc(Cl)cc4Cl)CC3)nc2-c2ccc(F)cc2)n1 [Example 489] gave an IC50 greater than 1000 nM.
In the case of CC(C)NC(=O)c1csc(-c2oc(CN3CCN(C(=O)c4cc(Cl)ccc4Cl)CC3)nc2-c2ccc(F)cc2)n1 [Example 490], the IC50 is reported as greater than 1000 nM.
With CC(C)NC(=O)c1csc(-c2oc(CN3CCN(C(=O)c4cc(F)c(F)c(O)c4F)CC3)nc2-c2ccc(F)cc2)n1 [Example 491] the IC50 was greater than 1000 nM.
CC(C)NC(=O)c1csc(-c2oc(CN3CCN(C(=O)/C=C/c4ccc5c(c4)OCO5)CC3)nc2-c2ccc(F)cc2)n1 [Example 492] was tested, and the IC50 was greater than 1000 nM.
Cc1ccc(C(=O)CCC(=O)N2CCN(Cc3nc(-c4ccc(F)cc4)c(-c4nc(C(=O)NC(C)C)cs4)o3)CC2)cc1 [Example 493] gave an IC50 greater than 1000 nM.
In the case of CCCCCc1ccc(C(=O)N2CCN(Cc3nc(-c4ccc(F)cc4)c(-c4nc(C(=O)NC(C)C)cs4)o3)CC2)cc1 [Example 494], the IC50 is reported as greater than 1000 nM.
Compound CC(C)NC(=O)c1csc(-c2oc(CN3CCN(C(=O)c4cc(F)c(F)cc4Cl)CC3)nc2-c2ccc(F)cc2)n1 [Example 495] has an IC50 greater than 1000 nM.
Compound CC(C)NC(=O)c1csc(-c2oc(CN3CCN(C(=O)c4cc(F)c(Cl)cc4F)CC3)nc2-c2ccc(F)cc2)n1 [Example 496] has an IC50 greater than 1000 nM.
CCN(CC)c1ccc(C(=O)N2CCN(Cc3nc(-c4ccc(F)cc4)c(-c4nc(C(=O)NC(C)C)cs4)o3)CC2)cc1 [Example 497] was tested, and the IC50 was no more than 1000 nM.
With COc1cc(/C=C/C(=O)N2CCN(Cc3nc(-c4ccc(F)cc4)c(-c4nc(C(=O)NC(C)C)cs4)o3)CC2)ccc1O [Example 498] the IC50 was no more than 1000 nM.
COc1ccc(/C=C/C(=O)N2CCN(Cc3nc(-c4ccc(F)cc4)c(-c4nc(C(=O)NC(C)C)cs4)o3)CC2)cc1O [Example 499] showed an IC50 of no more than 1000 nM.
CCCCOc1ccc(C(=O)N2CCN(Cc3nc(-c4ccc(F)cc4)c(-c4nc(C(=O)NC(C)C)cs4)o3)CC2)cc1 [Example 500] showed an IC50 of no more than 1000 nM.
Work on CC(C)NC(=O)c1csc(-c2oc(CN3CCN(C(=O)c4cc5cc(Cl)ccc5o4)CC3)nc2-c2ccc(F)cc2)n1 [Example 501] yielded an IC50 greater than 1000 nM.
Work on COc1ccc([N+](=O)[O-])c(C(=O)N2CCN(Cc3nc(-c4ccc(F)cc4)c(-c4nc(C(=O)NC(C)C)cs4)o3)CC2)c1 [Example 502] yielded an IC50 greater than 1000 nM.
